In general, IC50 refers to the concentration that gives 50% inhibition.

Each structure is given as a SMILES string.

The values that follow come from paper PMC11678425, “(-)-Syringaresinol Exerts an Antidepressant-like Activity in Mice by Noncompetitive Inhibition of the Serotonin Transporter” (Pharmaceuticals, 2024).

One assay deals with T1, hSERT I327A (Homo sapiens, UniProt P31645, I327A).
T1 construct: forward and reverse primers were used to amplify a full-length hSERT; expressed in transfected cells; host or cells: HeLa cells, transient, pcDNA3.1
Put plainly: APP^+ uptake, hSERT I327A. The format is cell-based. The settings on record: S2 site mutant, read-out: SYR IC50 for Transport.

The next assay addresses T2, hSERT D328A (Homo sapiens, UniProt P31645, D328A).
T2 construct: forward and reverse primers were used to amplify a full-length hSERT; expressed in transfected cells; host or cells: HeLa cells, transient, pcDNA3.1
The assay can be described thus: APP^+ uptake, hSERT D328A. The format is cell-based. The following applies: S2 site mutant, read-out: SYR IC50 for Transport.

The target of another assay is T3, hSERT G498T (Homo sapiens, UniProt P31645, G498T).
T3 construct: forward and reverse primers were used to amplify a full-length hSERT; expressed in transfected cells; host or cells: HeLa cells, transient, pcDNA3.1
Put plainly: APP^+ uptake, hSERT G498T. Format: cell-based. The settings on record: S2 site mutant, read-out: SYR IC50 for Transport.

A further assay concerns the target T4, hSERT L565A (Homo sapiens, UniProt P31645, L565A).
T4 construct: forward and reverse primers were used to amplify a full-length hSERT; expressed in transfected cells; host or cells: HeLa
Put plainly: APP^+ uptake, hSERT L565A. Format: cell-based. The settings on record: S2 site mutant, read-out: SYR IC50 for Transport.

The target of the next assay is T5, hSERT T583A (Homo sapiens, UniProt P31645, T583A).
T5 construct: forward and reverse primers were used to amplify a full-length hSERT; expressed in transfected cells; host or cells: HeLa
The assay can be described thus: APP^+ uptake, hSERT T583A. The format is cell-based. The following applies: S2 site mutant, read-out: SYR IC50 for Transport.

Another assay has as its target T6, hSERT E494Q (Homo sapiens, UniProt P31645, E494Q).
T6 construct: forward and reverse primers were used to amplify a full-length hSERT; expressed in transfected cells; host or cells: HeLa cells, transient, pcDNA3.1
Put plainly: ASP^+ binding, hSERT E494Q. The settings on record: S2 site mutant, read-out: SYR IC50 for Binding.

The target of a further assay is T7, hSERT L563A (Homo sapiens, UniProt P31645, L563A).
T7 construct: forward and reverse primers were used to amplify a full-length hSERT; expressed in transfected cells; host or cells: HeLa
The assay can be described thus: ASP^+ binding, hSERT L563A. The settings on record: S2 site mutant, read-out: SYR IC50 for Binding.

The subject of assay [1] is hSERT S1 mutants (Y95F, I172F, S438T). The assay can be described thus: ASP^+ binding, S1 site mutants compared with WT. The following applies: Tyr95 to Phe, Ile172 to Phe, Ser438 to Thr. Also on record: species or system human. The protocol:
HeLa cells were cultured in Dulbecco’s Modified Eagle’s Medium supplemented with 10% fetal bovine serum, 100 units/mL penicillin, and 100 μg/mL streptomycin at 37 °C in a humidified 5% CO2 incubator. Cells grown at ~70% confluence in a 6 cm culture dish were transfected with hSERT cDNA in pcDNA3.1 by lipofectamine 2000. Transfected cells were incubated for 12 h at 37 °C with 5% CO2 and then transferred into 96-well plates. After being grown for an additional 12–16 h, the cells were then assayed for APP^+ uptake or ASP^+ binding.
ASP^+ binding to SERT expressed on the cell surface was measured with digitonin-permeabilized cells as described previously. The cells expressing WT or mutants of hSERT were incubated with 10 μM ASP^+ in the presence of 25 μg/mL digitonin at 22 °C for 5 min. After removing excess ASP^+ by 3× rapid washing, ASP^+ fluorescence retained in the cell membrane was determined by fluorescence spectrometry.
hSERT mutants were generated using the Mut Express II Fast Mutagenesis kit (Vazyme, Nanjing, China). Briefly, forward and reverse primers were used to amplify a full-length hSERT. The PCR products were then digested with restriction enzymes, excised from agarose gels, and ligated into pcDNA3.1. All mutations were confirmed by full-length DNA sequencing.

The test system of another assay is CUMS mice. The assay can be described thus: Novelty suppressed feeding test (NSFT) in CUMS mice. The format is in vivo, mouse. The protocol:
C57BL/6 adult (6–8 weeks, body weight, 18–22 g) male mice were maintained and handled in a standard condition at the Experimental Animal Center of Southern Medical University (Guangzhou, China). Animal use was approved by the Animal Use and Care Committee of Southern Medical University (approved code: SMUL2021177, approved date: 12 December 2021). The CUMS procedure was carried out according to a protocol described previously. Except for those in the control group, mice were randomly exposed to two mild unpredictable stressors per day for 3 weeks. The stressors included water deprivation, restraint, tilted cage, wet/no bedding, rotation, peppermint, noise, and inverted light off/on. Mice in the control group were group housed without any stressors throughout the procedure. […] NSFT was performed after 16 h food deprivation, as described previously. The mouse was placed in an open field (24 × 40 × 14 cm), where a new chow was put in the center, and the latency time to bite food was counted over 10 min. Home cage feeding within a 20 min period was measured after the test. FST was carried out according to a protocol described previously. The mouse was placed into a beaker (Bomex, Beijing, China) with a height of 18 cm filled with water (22 ± 1 °C) for 6 min. The immobile time was measured during minutes 2–6. TST was performed according to a previous description. The mouse was suspended from a hook that hung from a suspension bar by placing a piece of adhesive tape on its tail about 1 cm away from the tip. The immobile time during minutes 2–6 was measured.

Another assay addresses hSERT (Homo sapiens, UniProt P31645). The format is cell-based. More on the design: forward and reverse primers were used to amplify a full-length hSERT; expressed in transfected cells; host or cells: HeLa.

T3 sequence (P31645 whole entry G498T): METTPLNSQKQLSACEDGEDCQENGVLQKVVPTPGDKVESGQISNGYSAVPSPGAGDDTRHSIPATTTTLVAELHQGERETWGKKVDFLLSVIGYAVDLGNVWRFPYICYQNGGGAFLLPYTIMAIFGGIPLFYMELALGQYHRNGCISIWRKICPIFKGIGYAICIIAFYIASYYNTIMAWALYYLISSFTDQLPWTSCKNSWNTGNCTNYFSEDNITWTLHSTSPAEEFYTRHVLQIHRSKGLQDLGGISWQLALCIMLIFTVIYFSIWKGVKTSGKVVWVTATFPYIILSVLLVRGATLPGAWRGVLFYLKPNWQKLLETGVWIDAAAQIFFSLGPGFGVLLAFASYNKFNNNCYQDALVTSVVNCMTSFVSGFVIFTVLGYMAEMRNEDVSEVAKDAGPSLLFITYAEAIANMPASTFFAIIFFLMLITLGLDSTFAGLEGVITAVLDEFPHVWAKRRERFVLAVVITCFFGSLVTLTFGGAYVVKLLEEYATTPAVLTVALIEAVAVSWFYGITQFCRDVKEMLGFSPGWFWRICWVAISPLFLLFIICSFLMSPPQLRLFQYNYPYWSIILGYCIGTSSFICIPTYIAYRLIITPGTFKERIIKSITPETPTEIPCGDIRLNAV
T2 sequence (P31645 whole entry D328A): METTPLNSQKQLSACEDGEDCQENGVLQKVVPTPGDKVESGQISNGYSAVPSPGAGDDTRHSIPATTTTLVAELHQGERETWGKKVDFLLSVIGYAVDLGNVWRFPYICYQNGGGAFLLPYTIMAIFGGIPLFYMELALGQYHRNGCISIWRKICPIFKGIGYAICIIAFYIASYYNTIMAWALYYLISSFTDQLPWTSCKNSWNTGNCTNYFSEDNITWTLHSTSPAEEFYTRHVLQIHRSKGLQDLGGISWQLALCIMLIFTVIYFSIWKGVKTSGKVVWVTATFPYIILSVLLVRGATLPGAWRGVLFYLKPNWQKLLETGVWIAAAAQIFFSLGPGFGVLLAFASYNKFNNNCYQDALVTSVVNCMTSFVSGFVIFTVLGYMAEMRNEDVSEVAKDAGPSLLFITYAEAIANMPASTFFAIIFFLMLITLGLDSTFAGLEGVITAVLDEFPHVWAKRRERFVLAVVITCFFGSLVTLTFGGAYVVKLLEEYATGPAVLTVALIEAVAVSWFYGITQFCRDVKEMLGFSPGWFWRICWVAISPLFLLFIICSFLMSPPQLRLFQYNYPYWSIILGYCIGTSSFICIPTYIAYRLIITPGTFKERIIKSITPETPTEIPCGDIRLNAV
T1 sequence (P31645 whole entry I327A): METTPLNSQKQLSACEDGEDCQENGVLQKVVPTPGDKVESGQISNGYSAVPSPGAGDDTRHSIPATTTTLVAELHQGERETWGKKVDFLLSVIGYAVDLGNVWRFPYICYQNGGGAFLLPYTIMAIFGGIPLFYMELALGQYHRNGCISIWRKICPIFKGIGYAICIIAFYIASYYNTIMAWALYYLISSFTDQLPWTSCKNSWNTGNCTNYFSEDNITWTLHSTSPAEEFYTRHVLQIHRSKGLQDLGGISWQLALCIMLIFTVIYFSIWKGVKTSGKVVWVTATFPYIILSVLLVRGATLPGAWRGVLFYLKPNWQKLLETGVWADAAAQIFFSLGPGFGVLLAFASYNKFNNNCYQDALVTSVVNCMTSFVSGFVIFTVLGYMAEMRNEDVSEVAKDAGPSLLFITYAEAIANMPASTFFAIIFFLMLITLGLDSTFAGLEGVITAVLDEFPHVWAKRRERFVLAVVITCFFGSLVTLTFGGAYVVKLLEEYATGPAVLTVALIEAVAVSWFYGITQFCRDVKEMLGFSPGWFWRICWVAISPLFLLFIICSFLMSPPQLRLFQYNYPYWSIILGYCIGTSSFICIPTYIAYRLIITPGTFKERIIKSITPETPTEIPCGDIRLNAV
T4 sequence (P31645 whole entry L565A): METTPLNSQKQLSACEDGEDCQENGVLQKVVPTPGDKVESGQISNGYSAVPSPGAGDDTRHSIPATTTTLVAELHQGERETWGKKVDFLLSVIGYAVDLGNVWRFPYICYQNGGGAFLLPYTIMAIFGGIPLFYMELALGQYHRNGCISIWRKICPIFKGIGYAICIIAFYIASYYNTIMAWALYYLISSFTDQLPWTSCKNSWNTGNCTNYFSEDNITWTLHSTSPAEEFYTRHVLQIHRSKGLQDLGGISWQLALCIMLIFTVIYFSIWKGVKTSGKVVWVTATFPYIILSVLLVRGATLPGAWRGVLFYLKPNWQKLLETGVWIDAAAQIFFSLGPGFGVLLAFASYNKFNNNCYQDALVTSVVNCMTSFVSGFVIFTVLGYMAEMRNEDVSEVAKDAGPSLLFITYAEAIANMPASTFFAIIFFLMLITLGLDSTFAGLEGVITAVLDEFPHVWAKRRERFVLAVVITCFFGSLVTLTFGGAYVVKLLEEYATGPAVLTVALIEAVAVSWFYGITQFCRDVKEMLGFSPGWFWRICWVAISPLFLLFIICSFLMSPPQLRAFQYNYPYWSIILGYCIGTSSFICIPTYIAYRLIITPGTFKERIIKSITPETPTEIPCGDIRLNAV
Chain of hSERT (P31645 whole entry): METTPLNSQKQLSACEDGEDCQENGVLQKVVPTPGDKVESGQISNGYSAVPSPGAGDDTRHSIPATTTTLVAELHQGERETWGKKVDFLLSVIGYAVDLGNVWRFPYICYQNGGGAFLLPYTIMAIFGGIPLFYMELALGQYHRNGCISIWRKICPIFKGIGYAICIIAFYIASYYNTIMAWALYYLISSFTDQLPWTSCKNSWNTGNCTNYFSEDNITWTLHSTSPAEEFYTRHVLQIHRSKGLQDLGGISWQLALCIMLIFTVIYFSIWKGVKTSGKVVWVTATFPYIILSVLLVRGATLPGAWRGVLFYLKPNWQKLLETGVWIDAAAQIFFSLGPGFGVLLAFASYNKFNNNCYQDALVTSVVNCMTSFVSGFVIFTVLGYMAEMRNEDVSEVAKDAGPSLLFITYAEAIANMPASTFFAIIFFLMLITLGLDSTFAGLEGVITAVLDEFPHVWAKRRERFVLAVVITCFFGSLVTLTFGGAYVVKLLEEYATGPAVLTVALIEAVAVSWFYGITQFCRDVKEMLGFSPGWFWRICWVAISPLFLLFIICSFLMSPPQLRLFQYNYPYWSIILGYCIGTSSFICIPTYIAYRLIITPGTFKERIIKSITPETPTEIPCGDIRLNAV
T5 sequence (P31645 whole entry T583A): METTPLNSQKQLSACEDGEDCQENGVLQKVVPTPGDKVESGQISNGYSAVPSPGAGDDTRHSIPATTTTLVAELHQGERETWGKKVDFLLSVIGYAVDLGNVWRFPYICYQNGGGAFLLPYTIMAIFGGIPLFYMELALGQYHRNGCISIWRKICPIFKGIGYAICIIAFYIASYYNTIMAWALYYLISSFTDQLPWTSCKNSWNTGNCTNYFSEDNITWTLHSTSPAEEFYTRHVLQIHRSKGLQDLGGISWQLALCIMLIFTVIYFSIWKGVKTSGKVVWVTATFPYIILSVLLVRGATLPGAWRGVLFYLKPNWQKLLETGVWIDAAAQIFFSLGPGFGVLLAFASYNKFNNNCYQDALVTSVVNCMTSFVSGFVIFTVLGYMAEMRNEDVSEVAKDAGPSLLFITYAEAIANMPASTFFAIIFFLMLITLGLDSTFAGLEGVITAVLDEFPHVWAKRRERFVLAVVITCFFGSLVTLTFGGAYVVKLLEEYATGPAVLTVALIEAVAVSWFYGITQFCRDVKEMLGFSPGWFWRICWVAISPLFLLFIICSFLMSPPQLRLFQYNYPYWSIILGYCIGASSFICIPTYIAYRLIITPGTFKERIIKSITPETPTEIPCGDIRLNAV
T7 sequence (P31645 whole entry L563A): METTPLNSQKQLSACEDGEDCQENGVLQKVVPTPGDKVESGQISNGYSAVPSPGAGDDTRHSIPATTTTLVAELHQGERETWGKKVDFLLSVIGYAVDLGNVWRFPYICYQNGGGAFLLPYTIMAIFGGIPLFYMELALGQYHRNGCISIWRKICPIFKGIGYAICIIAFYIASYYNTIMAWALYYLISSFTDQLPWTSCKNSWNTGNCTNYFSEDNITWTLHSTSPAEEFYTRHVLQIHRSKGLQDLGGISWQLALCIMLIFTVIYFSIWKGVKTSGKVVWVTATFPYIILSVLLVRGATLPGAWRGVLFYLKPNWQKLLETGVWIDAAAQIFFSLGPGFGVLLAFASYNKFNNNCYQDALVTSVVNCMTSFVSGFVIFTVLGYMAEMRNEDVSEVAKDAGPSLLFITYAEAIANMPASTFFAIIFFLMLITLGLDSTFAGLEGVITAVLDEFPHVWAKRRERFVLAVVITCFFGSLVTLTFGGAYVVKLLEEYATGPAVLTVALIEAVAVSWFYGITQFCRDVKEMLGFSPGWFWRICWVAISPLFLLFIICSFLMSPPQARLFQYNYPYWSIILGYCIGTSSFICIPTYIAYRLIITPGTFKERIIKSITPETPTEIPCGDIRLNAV
T6 sequence (P31645 whole entry E494Q): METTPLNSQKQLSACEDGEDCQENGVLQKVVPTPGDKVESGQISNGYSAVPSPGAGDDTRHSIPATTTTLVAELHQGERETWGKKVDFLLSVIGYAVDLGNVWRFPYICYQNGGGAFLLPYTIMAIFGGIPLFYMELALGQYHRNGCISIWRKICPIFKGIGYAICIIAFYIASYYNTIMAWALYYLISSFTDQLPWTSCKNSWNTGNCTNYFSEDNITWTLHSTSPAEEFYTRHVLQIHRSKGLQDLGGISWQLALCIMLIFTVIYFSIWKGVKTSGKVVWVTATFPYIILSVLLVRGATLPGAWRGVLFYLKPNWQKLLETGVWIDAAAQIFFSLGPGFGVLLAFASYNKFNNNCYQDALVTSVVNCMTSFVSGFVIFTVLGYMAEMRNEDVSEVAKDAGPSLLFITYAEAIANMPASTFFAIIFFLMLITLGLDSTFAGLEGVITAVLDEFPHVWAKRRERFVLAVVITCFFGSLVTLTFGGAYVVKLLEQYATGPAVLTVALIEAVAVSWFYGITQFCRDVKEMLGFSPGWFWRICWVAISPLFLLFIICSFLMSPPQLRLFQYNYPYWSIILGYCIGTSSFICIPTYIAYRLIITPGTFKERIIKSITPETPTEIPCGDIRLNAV

On to `COc1cc([C@@H]2OC[C@@H]3[C@H]2CO[C@H]3c2cc(OC)c(O)c(OC)c2)cc(OC)c1O` [SYR, (-)-syringaresinol], for which the 50% inhibitory concentration (IC50) stood at 19.5 ± 1.02 µM on hSERT I327A; 19.6 ± 1.21 µM on hSERT D328A; 40.5 ± 0.54 µM on hSERT G498T; 9.98 ± 1.22 µM on hSERT L565A; 8.68 ± 1.4 µM on hSERT T583A; 9.77 ± 0.78 µM on hSERT E494Q. Also, the IC50 on hSERT L563A is 39 ± 0.92 µM. Further, the “effect of S1 site mutations on SYR inhibition of ASP^+ binding” value in assay [1] is given as “little effect”. Further, in the assay on CUMS mice (5 mg/kg, i.p., once per day day 7 to 21), the “reversal of behavioral abnormalities in NSFT” value is given as “did not exhibit a significant response”. Besides, the “effect in NSFT” value in the assay with CUMS mice (10 or 20 mg/kg (i.p.)) is “remarkable antidepressant-like effects”. Besides, at hSERT, the “hSERT expression on the cell surface” value is “did not alter”.
